Key:
Type in all cases: in vivo
Codling Moth larvae = assay: Repellency as feeding deterrence and mortality in Codling Moth larvae on treated media; conditions: for Repellency at 24 hours: first instar larva, control 8%
Protocol: Another test was designed to measure the repellency as feeding deterrence in Codling Moth larvae. The treatment was applied to the surface of a proprietary laboratory media in a tray with wells for each compound. The media was allowed to dry for 30-60 minutes so that larvae were not exposed to it as a liquid. One first instar codling moth larva was then placed on the treated media. The cover film was placed on the tray to prevent escapes. Ten additional replicates treated with a 57% ethanol solution were prepared to serve as controls. […] After the 24 hour reading, the larvae were extracted from the media to record any mortality.
Mortality observations were also made for the above protocol. The control was the 57% ethanol:43% water solution.

[1] = test system: Leptinotarsa decemlineata-Colorado Potatoe Beetles; assay: Choice feeding assay on potato leaf disks; conditions: 3% compound, larvae, 24 h
Protocol: For choice feeding assays, 3% alcohol solutions of the tested compounds are prepared. Disks (4.0 cm in diameter) are cut from potato leaves and are dipped in the test solutions or alcohol alone as a control. After the complete evaporation of the solvent, the disks are offered to 10 larvae. Control and treated disks are placed at alternate corners in Petri dishes (150 by 20 mm) lined with moistened filter paper (choice test). All dishes are placed in an incubator. Four replicates and 40 larva are used for each chemical. In each replicate, the insects are allowed to feed ad libitum for 24 h at 24 C under a 16:8 (L:D) photoperiod. After 24 h, the remaining uneaten area of each potato leaf disk is measured using a scanner and software. The selective antifeeding rate (%) formula is [(C−T)/(C+T)]×100, and the non-selective antifeeding rate (%) formula is [(C−T)/C)]×100, where C and T are the areas consumed by the control and treated leaf disks, respectively.

Tineola spp. = assay: Clothes moth feeding damage on silk fabric, choice test; conditions: 3% compound; silk disks; late instar larvae; 24 hours; control 50/50
Protocol: For feeding assays, 3% alcohol solutions of the tested compounds are prepared. Disks (2.0 cm in diameter) of undyed silk fabric are dipped in the test solutions or alcohol alone as a control. After the complete evaporation of the solvent, the disks are presented in a choice test to 10 late instar Tineola spp. larvae. All dishes are placed in an incubator in the dark. Four replicates are used for each chemical. After 24 hours, the number of individuals choosing to feed on each disk are counted.

Aphis gossypii = assay: Melon aphid repellency on leaf choice assays; conditions: 3% compound in a Triton X:Water solution; n=100; control 50/50
Excerpt: Melon Aphid Repellency on Leaf Choice Assays Aphis gossypii are maintained on squash plants. Individual aphids (n=100) are given the choice between leaves with and without repellent treatments. A separate group of aphids are given a choice between untreated vs. untreated leaves as a control. The number of aphids choosing each leaf is counted both choice tests. The number of aphids choosing each treatment is compared to the control to determine the repellent effect.

Sitostroga cerealella = assay: Feeding repellent assay for Angoumois larva on treated rice; conditions: 10% compound in a 5% Ethanol:95% water solution, third instar larvae, 1 week
Protocol: Feeding Repellent Assay for Angoumois Larva
(§1) One gram of rice is weighed and treated with 2% by weight of each test chemical or ethanol as a control for each treatment and replicate. The grains are allowed to dry and then weighed again. Treated or control rice grains are placed in a petri dish. Third instar larvae are starved for 8 h and gently introduced into the center of each compartment. 20 larva are screened per treatment, and each experiment is repeated three times. The weight of rice grains is measured again after 1 week. The selective antifeeding rate (%) formula is [(C−T)/(C+T)]×100, and the non-selective antifeeding rate (%) formula is [(C−T)/C)]×100, where C and T are the areas consumed by the control and treated leaf disks, respectively.

Popillia japonica = assay: Japanese beetle feeding damage on basil; conditions: 3% compound; basil leaf disks; adult beetle; 24 h
Protocol: Japanese Beetle Feeding Damage on Basil For choice feeding assays, 3% alcohol solutions of the tested compounds are prepared. Disks (4.0 cm in diameter) are cut from basil leaves and are dipped in the test solutions or alcohol alone as a control. After the complete evaporation of the solvent, the disks are offered to 1 adult beetle. All dishes are placed in an incubator. Four replicates are used for each chemical. After 24 h, the remaining uneaten area of each basil leaf disk is measured using a scanner and software. The selective antifeeding rate (%) formula is [(C−T)/(C+T)]×100, and the non-selective antifeeding rate (%) formula is [(C−T)/C)]×100, where C and T are the areas consumed by the control and treated leaf disks, respectively.

Plodia interpunctella = assay: Feeding repellent assay for Indian meal moth larva on treated rice; conditions: 10% compound in a 5% Ethanol:95% water solution, third instar larvae, 1 week
Protocol: as §1, with “Feeding Repellent Assay for Indian Meal Moth Larva One” for “One”

Dermestid spp. = assay: Dermestid beetle feeding damage on silk fabric; conditions: 3% compound; undyed silk disks; late instar larvae; 1 week
Protocol: Dermestid Beetle Feeding Damage on Silk Fabric
For feeding assays, 3% alcohol solutions of the tested compounds are prepared. Disks (4.0 cm in diameter) of undyed silk fabric are dipped in the test solutions or alcohol alone as a control. After the complete evaporation of the solvent, the disks are offered to 10 late instar larvae. All dishes are placed in an incubator. Four replicates are used for each chemical. After 1 week, the remaining uneaten area of each silk disk is measured using a scanner and software. The selective antifeeding rate (%) formula is [(C−T)/(C+T)]×100, and the non-selective antifeeding rate (%) formula is [(C−T)/C)]×100, where C and T are the areas consumed by the control and treated silk disks, respectively.

[2] = test system: Euschistus heros-Neotropical Brown Stink Bugs; assay: Stink bug feeding damage on soybean pods; conditions: 3% compound, soybean plants at R6 stage, 48 hours
Protocol: To compare the feeding/resting preference of stink bug adults for different plant parts, 10 pots with soybean plants at the R6 (pod-filling) stage of development are used. 5 pots of soybeans are sprayed with 3% of treatment in a 2% Triton X:water solution and 5 pots of soybean are treated with 2% Triton X:water solution as controls. Thirty stink bugs are placed individually in each cage and allowed to feed for 48 hours. Insects are removed and plant parts are collected for visual analysis of damage. Feeding damage on the pods is counted for both treatments. The selective antifeeding rate (%) formula is [(C−T)/(C+T)]×100, and the non-selective antifeeding rate (%) formula is [(C−T)/C)]×100, where C and T are the numbers of feeding damages on the control and treated plant pods, respectively.

sharpshooters = assay: Leafhopper repellency on citrus choice assays; conditions: 3% compound; citrus seedlings; 100 sharpshooters per cage; control 50/50
Excerpt: Leafhopper Repellency on Citrus Choice Assays Citrus seedlings are sprayed with either a 3% solution of repellent chemical in a 5%:95% ETOH:Water or only 5%:95% ETOH:Water as a control. Two seedlings are placed in a screen cage, either a treatment vs control tree or a control vs control tree. 100 sharpshooters are released into each cage. The number of sharpshooters choosing each leaf is counted for both choice tests. The number of sharpshooters choosing each treatment is compared to the control to determine if there is a repellent effect.

psyllids = assay: Psyllid repellency on potato choice assays; conditions: 3% compound; potato plants; 100 psyllids per cage; control 50/50
Excerpt: Psyllid Repellency on Potato Choice Assays
Potato plants are sprayed with either a 3% solution of repellent chemical in a 5%:95% ETOH:Water or only 5%:95% ETOH:Water as a control. Two plants are placed in a screen cage, either a treatment vs control tree or a control vs control tree, 100 psyllids are released into each cage. The number of psyllids choosing each leaf is counted for both choice tests. The number of psyllids choosing each treatment is compared to the control to determine if there is a repellent effect.

[3] = test system: brown marmorated stink bugs (BMSB); assay: Repellency as feeding deterrence in brown marmorated stink bugs, treated filter paper with green bean; conditions: control 38%
Protocol: A test was designed to measure the repellency as feeding deterrence in brown marmorated stink bugs (BMSB). Five replicates of 5 BMSBs were introduced into test arenas, containing one 60 mm×15 mm Petri dish with treated filter papers in which a food source (green bean) was attached, at the start of the test. The small Petri dishes containing the treated filter paper and food source were covered with a fitted Petri dish lid in between observation times, and were removed 5 minutes before each observation time to prevent stink bugs from feeding until sated. The distribution of the BMSBs was observed and documented hourly for 5 hours.

[4] = compound at 3.5% in a 57% Ethanol:43% water solution
[5] = compound at 2.5% in a 57% Ethanol:43% water solution

CCCCCCCC1CC(=O)C=C(C)C1 (stereo not drawn) [3-Methyl-5-Heptyl-2-Cyclohexenone]
Increased Mortality over Control Mortality at 24 hours (Codling Moth larvae; [4]): 93%
Repellency at 24 hours (Codling Moth larvae; [4]): 95%

CCCC1CC(C)=CC(O)C1 (stereo not drawn) [3-Methyl-5-Propyl-2-Cyclohexenol]
Increased Mortality over Control Mortality at 24 hours (Codling Moth larvae; [4]): 9%
Repellency at 24 hours (Codling Moth larvae; [4]): 30%

CC(C)=CCC/C(C)=C/CC1CCCC1O (stereo not drawn) [Apritol]
% Repellency [1]: 15%
Individuals choosing to feed on each disk: Treated (Tineola spp.): 20
Individuals choosing to feed on each disk: Untreated (Tineola spp.): 80
Number of Aphids Choosing each Treatment: Treated (Aphis gossypii): 30
Number of Aphids Choosing each Treatment: Untreated (Aphis gossypii): 70
% Antifeedent Activity (Sitostroga cerealella): 70%
% Repellency (Popillia japonica): 15%
% Antifeedent Activity (Plodia interpunctella): 70%
% Repellency (Dermestid spp.): 15%
% Antifeedent Activity [2]: 60%
Number of Psyllids Choosing each Treatment: Treated (sharpshooters): 30
Number of Psyllids Choosing each Treatment: Untreated (sharpshooters): 70
Number of Psyllids Choosing each Treatment: Treated (psyllids): 30
Number of Psyllids Choosing each Treatment: Untreated (psyllids): 70

CC(C)=CCC/C(C)=C/CC1CCCC1=O (stereo not drawn) [Apritone, apritone]
% Repellency [1]: 15%
Individuals choosing to feed on each disk: Treated (Tineola spp.): 20
Individuals choosing to feed on each disk: Untreated (Tineola spp.): 80
Number of Aphids Choosing each Treatment: Treated (Aphis gossypii): 30
Number of Aphids Choosing each Treatment: Untreated (Aphis gossypii): 70
% Antifeedent Activity (Sitostroga cerealella): 70%
% Repellency (Popillia japonica): 15%
% Antifeedent Activity (Plodia interpunctella): 70%
% Repellency (Dermestid spp.): 15%
% Antifeedent Activity [2]: 60%
Number of Psyllids Choosing each Treatment: Treated (sharpshooters): 30
Number of Psyllids Choosing each Treatment: Untreated (sharpshooters): 70
Number of Psyllids Choosing each Treatment: Treated (psyllids): 30
Number of Psyllids Choosing each Treatment: Untreated (psyllids): 70

CCCCCCCCC1CCC(=O)O1 (stereo not drawn) [Gamma-Dodecalactone]
Repellency at 24 hours (Codling Moth larvae; [4]): 46%
Increased Mortality over Control Mortality at 24 hours (Codling Moth larvae; in vivo): 37%
Repellency averaged over 5 hours [3, 4]: 82%

CCCCCCCCCC1(C)CCC(=O)O1 (stereo not drawn) [Gamma-Methyl Tridecalactone]
Repellency averaged over 5 hours [3, 4]: 67%

CCCCCC1C(=O)CCC1CC(=O)OC (stereo not drawn) [Methyl Dihydrojasmonate - High epi, Methyl Dihydrojasmonate]
Repellency averaged over 5 hours [3, 5]: 39%

CCCCCC1C(=O)CCC1CC(=O)OC (stereo not drawn) [Methyl Dihydrojasmonate - Low epi, Methyl Dihydrojasmonate]
Repellency averaged over 5 hours [3, 5]: 58%

CC1CCC(C(C)(C)O)C(O)C1 (stereo not drawn) [Para-Menthanediol, p-Menthane-3,8-diol, reference compound]
Increased Mortality over Control Mortality at 24 hours (Codling Moth larvae; [4]): 3%
Repellency at 24 hours (Codling Moth larvae; [4]): 10%
Repellency averaged over 5 hours [3, 4]: 91%

CCCCCC1C(=O)CCC1CC(=O)OCC=C(C)C (stereo not drawn) [Prenyl Dihydrojasmonate]
Increased Mortality over Control Mortality at 24 hours (Codling Moth larvae; [4]): 34%
Repellency at 24 hours (Codling Moth larvae; [4]): 79%

CCCCCC1C(=O)CCC1CC(=O)OCCC (stereo not drawn) [Propyl Dihydrojasmonate - High epi, Propyl Dihydrojasmonate]
Repellency averaged over 5 hours [3, 5]: 49%

CCCCCC1C(=O)CCC1CC(=O)OCCC (stereo not drawn) [Propyl Dihydrojasmonate - Low epi, Propyl Dihydrojasmonate]
Repellency averaged over 5 hours [3, 5]: 74%
